This passage reports IC50, EC50 and AC50 results from ChEMBL document CHEMBL1201862, “PubChem BioAssay data set” (2004).

Usually IC50 stands for the concentration that inhibits the measured activity by half. In general, EC50 refers to the concentration at which the effect is half-maximal. Broadly, the AC50 is the concentration at which the activity in the assay is half-maximal.

Activity calls are given as the source filed them.

Assay [1] deals with T1, Apoptotic protease-activating factor 1 (Homo sapiens, UniProt O14727).
T1 sequence (O14727 whole entry): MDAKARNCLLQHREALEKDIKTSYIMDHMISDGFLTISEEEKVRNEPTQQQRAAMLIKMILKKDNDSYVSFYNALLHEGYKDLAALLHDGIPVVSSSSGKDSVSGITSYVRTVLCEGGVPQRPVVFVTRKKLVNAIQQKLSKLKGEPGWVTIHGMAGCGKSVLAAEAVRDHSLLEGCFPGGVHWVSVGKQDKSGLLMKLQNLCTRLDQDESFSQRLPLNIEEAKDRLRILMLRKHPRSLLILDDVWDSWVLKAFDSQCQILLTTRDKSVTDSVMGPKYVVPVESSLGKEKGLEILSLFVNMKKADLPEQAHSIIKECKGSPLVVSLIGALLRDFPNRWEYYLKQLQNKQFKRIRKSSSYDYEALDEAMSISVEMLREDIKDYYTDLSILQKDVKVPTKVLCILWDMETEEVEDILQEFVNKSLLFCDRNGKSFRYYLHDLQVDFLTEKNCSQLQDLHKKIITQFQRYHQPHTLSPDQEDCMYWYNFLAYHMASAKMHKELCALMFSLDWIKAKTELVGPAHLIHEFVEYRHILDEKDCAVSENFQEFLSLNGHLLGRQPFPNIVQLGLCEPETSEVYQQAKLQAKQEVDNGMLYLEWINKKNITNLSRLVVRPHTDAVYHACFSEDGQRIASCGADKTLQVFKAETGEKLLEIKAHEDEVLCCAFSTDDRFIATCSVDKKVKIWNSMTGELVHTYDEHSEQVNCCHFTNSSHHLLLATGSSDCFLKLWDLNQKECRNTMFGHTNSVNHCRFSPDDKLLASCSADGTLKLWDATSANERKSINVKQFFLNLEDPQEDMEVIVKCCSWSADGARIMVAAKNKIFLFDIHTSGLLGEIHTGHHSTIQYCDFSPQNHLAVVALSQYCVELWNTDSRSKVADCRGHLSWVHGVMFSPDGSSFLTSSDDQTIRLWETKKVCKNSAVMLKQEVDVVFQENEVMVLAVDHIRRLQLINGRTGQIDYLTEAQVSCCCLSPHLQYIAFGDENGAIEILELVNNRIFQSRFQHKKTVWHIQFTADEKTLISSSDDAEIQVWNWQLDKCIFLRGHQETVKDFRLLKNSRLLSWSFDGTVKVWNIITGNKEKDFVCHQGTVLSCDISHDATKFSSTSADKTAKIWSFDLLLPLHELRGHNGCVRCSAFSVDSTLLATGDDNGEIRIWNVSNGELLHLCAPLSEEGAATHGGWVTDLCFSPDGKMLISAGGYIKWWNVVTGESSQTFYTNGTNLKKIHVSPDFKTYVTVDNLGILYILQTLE
The class given is functional.

The subject of assay [2] is Streptococcus sp. 'group A'. Description: Streptococcus pyogenes SK(-)GAS viability under kanamycin – luminescence, BacTiterGlo, confirmation, counter-screen for streptokinase expression inhibitor project, dose response (AID 1900). In kind it is functional, organism-based. On the technique in general: The purpose of a counterscreen is to sort out artefacts and off-target activity.

A further assay addresses T2, Streptokinase A (Streptococcus pyogenes serotype M1, UniProt P10520).
T2 sequence (P10520 whole entry): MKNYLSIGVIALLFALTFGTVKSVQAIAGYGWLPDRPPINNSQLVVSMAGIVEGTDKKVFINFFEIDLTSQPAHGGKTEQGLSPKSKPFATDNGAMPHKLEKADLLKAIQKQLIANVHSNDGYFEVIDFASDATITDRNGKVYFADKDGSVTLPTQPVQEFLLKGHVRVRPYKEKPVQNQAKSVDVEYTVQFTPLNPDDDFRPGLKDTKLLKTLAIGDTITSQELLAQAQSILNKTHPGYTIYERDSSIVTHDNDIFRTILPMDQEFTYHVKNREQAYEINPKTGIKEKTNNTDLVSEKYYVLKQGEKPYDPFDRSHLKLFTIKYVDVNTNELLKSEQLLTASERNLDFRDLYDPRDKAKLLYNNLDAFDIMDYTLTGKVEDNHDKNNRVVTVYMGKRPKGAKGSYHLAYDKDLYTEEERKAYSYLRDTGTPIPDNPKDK
Description: viability-normalized secreted streptokinase activity reduction – plasminogen activation absorbance, OD405, dose response (AID 1914).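 Further: secreted streptokinase activity via plasminogen activation per viability signal from cell pellet.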 The class given is functional, Streptococcus pyogenes M1 GAS.

A short description of assay [3]: NIH-3T3 fibroblast cytotoxicity, dose response, cytotoxicity control, cell-based, fluorescence, Alamar Blue, secondary assay (AID 2327).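 Further: NIH-3T3 mouse fibroblasts cultured with fluconazole at 8 µg/mL.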 The class given is functional. Background: Resazurin is reduced to fluorescent resorufin, in cell work by metabolically active cells.
The target of assay [4] is T3, Tyrosyl-DNA phosphodiesterase 2 (Homo sapiens, UniProt O95551).
T3 sequence (O95551 whole entry): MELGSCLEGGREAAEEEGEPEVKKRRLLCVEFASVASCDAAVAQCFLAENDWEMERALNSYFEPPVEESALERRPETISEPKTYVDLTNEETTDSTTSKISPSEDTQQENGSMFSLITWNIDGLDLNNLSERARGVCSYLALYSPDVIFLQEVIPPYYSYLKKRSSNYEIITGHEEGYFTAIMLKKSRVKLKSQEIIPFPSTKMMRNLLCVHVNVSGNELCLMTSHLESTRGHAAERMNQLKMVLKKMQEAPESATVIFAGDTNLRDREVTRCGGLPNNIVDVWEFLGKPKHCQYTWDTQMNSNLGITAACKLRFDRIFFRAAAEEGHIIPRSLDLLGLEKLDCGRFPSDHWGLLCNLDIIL
The experiment in a line: potency against TDP2 phosphodiesterase activity – biochemical, epi absorbance, IC50, dose response (AID 743297).

The subject of the next assay is Streptococcus. The experiment in a line: GAS UMAA2166 growth inhibition – luminescence, BacTiterGlo, counter-screen for streptokinase expression inhibitor project, dose response (AID 1915).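 Further: potency for reduction of bacterial viability or growth.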 In kind it is functional, organism-based.
Assay [5] is described as follows: fluconazole-exposed Candida albicans growth modulators – fluorescence, retest, confirmation (AID 2467). The class given is functional, cell-based.
A short description of assay [6]: loss of viability in HepG2 cells – cell-based, CellTiter-Glo, cherry-picked, cytotoxicity control for Shn3 inhibitor project, dose response (AID 624134). In kind it is functional. On the technique in general: In ATP-based viability assays light output follows the ATP content of the culture.
Assay [7] can be described thus: reduction of Shn3 3'UTR-driven luciferase in osteoblasts – cell-based, Clone20 osteoblasts, firefly luciferase, cherry-picked, dose response (AID 624132).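 Further: firefly luciferase luminescence from reporter carrying the Shn3 3'UTR in osteoblasts.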 The class given is functional.
Assay [8] can be described thus: non-specific 3'UTR reporter inhibition in Clone20-Shn3RL – cell-based, Renilla luciferase, cherry-picked, counter-screen for Shn3 inhibitor project, dose response (AID 624133). The class given is functional.
The nature of assay [9]: reduced cellular PGC1a acetyl-lysine signal – cell-based, cherry-picked samples, dose response (AID 720514).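 Further: potency may reflect raised or lowered acetylation signal.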 The class given is functional.
Assay [10] is described as follows: OVCAR8 cell viability loss – plate reader, dry powder samples, PAX8 project, dose response (AID 743197). The class given is functional, cell-based. The settings on record: OVCAR-8.
The target of a further assay is Paired box protein Pax-8 (Homo sapiens, UniProt Q06710). The experiment in a line: PAX8 transcriptional activity inhibition in RMG-I – RMG-I cells, luciferase, cherry-pick, dose response (AID 687027).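 Further: luciferase reporter driven by Pax8 target thyroperoxidase promoter measured by SteadyGlo luminescence.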 In kind it is functional, cell-based.
Sequence of Paired box protein Pax-8 (Q06710 whole entry): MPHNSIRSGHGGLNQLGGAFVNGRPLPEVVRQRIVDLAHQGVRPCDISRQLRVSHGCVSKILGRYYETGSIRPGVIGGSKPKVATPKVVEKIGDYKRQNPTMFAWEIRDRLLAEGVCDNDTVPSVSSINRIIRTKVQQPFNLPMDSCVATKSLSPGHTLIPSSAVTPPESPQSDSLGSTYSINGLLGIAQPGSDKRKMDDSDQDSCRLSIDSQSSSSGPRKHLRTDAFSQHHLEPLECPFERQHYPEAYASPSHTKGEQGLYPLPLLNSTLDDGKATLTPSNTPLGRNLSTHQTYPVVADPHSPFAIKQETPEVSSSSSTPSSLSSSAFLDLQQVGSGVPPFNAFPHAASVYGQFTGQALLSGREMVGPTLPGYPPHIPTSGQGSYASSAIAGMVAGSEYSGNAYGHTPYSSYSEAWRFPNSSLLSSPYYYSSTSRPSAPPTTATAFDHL
Assay [11] is described as follows: OVCAR-3 cell viability loss – plate reader, dry powder samples, PAX8 inhibitor project, dose response (AID 743044). The class given is functional, cell-based.
Assay [12] can be described thus: A2780 cell killing – plate reader, dry powder samples, cytotoxicity control, dose response (AID 743046). In kind it is functional, cell-based.

On to `Oc1c(Br)cc(Br)cc1CNc1cccc2cccnc12`, for which the figures for the IC50 in assay [1] and in assay [4] were 40.2 µM (active) and > 128 µM (inactive), respectively. Also, the EC50 was 6.08 µM (active) in assay [2]; > 150 µM (not active) at Streptokinase A; 101 µM (active) in assay [3]; 9.25 µM (active) in the assay on Streptococcus; > 38 µM (not active) in assay [5].
Regarding `COc1ccccc1NC(=O)Cn1c(C)cc(=O)c2cccc(OC)c21`, the AC50 in assay [6] is 48.1 µM (active); in [7] it was 3.16 µM (active); in [8] it was 4.46 µM (active); in assay [9] it was 35.8 µM (active).
In the case of `C[C@@H]1CN([C@H](C)CO)C(=O)c2cc(NS(=O)(=O)c3cccs3)ccc2O[C@@H](C)CCCCO[C@H]1CN(C)Cc1ccc(C(F)(F)F)cc1`, the AC50 is > 70 µM (inactive) in [10] and 8.66 µM (active) on Paired box protein Pax-8.
Regarding `C[C@@H]1CCCCO[C@@H](CN(C)Cc2ccc(Cl)c(Cl)c2)[C@H](C)CN([C@H](C)CO)C(=O)c2cc(NC(=O)c3ccccc3)ccc2O1`, the half-maximal activity concentration (AC50) in assay [10] was 27.5 µM (active); at Paired box protein Pax-8, 14 µM (active); in assay [11], 3.16 µM (active); in assay [12], 33.8 µM (active).
